Calls of active or inactive are those of the source. The rule behind the calls is not given here.
Experiments:
[1] = target: T1, Protein deacetylase HDAC6 (Homo sapiens, UniProt Q9UBN7); experiment: Inhibition of HDAC6 (unknown origin) by fluorescence based assay
T1 sequence (Q9UBN7 whole entry): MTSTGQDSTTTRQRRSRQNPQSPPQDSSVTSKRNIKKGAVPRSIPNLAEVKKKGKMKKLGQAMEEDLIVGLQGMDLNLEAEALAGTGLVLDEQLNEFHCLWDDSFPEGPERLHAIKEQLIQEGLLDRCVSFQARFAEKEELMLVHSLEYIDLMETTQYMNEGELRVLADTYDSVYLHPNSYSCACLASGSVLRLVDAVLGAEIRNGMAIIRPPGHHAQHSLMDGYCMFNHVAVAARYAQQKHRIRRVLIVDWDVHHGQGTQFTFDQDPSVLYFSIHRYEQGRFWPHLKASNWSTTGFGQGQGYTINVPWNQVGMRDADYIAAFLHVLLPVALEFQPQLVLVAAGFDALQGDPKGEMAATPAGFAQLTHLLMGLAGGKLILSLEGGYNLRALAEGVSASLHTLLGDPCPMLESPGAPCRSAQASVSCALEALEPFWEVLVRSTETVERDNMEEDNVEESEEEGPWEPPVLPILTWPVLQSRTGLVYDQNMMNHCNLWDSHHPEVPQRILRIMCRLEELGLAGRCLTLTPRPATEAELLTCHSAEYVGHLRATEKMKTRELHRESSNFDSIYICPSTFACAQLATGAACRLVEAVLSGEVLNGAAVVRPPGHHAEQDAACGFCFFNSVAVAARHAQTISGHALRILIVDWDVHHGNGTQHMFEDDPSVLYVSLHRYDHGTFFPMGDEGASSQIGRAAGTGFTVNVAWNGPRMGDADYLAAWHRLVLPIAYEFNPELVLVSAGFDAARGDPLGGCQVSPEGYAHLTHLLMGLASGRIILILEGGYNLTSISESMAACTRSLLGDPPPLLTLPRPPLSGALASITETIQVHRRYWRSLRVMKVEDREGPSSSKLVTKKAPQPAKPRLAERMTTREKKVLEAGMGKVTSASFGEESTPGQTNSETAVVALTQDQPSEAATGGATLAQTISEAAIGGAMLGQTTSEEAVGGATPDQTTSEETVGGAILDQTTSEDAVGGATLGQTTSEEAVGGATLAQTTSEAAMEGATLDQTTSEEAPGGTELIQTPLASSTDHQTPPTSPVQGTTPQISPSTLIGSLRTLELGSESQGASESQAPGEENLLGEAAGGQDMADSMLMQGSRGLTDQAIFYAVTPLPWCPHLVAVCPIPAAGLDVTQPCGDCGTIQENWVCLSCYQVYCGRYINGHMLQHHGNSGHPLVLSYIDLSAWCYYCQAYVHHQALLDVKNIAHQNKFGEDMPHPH

[2] = target: T2, Bromodomain-containing protein 4 (Homo sapiens, UniProt O60885); experiment: Inhibition of His-tagged BRD4 bromodomain 2 (unknown origin) using [Lys (5,8,12,16) Ac] H4(1-21) as substrate by fluorescence based assay
[3] = target: T3, Histone deacetylase 1 (Homo sapiens, UniProt Q13547); experiment: Inhibition of HDAC1 (unknown origin) by fluorescence based assay
[4] = target: T2, Bromodomain-containing protein 4; experiment: Inhibition of BRD4 in human MV4-11 cells assessed as reduction in c-Myc expression at 10 to 1000 nM measured after 24 hrs by Western blot analysis; type: cell-based; conditions: dose 10-1000 nM
[5] = system: MV4-11; experiment: Antiproliferative activity against human MV4-11 cells assessed as cell viability after 72 hrs by CCK8 assay; type: functional, cell-based; conditions: MV4-11, 72 h
[6] = target: T2, Bromodomain-containing protein 4; experiment: Inhibition of His-tagged BRD4 bromodomain 1 (unknown origin) using [Lys (5,8,12,16) Ac] H4(1-21) as substrate by fluorescence based assay
[7] = target: T4, Protein deacetylase HDAC6 (Homo sapiens) (UniProt Q9UBN7); experiment: Inhibition of HDAC6 in human MV4-11 cells assessed as increase in acetylated alpha-tubulin at 10 to 1000 nM incubated for 24 hrs by Western blot analysis; type: cell-based; conditions: dose 10-1000 nM
T4 sequence (whole entry): T1 sequence (Q9UBN7 whole entry)

[8] = system: MV4-11; experiment: Induction of cell cycle arrest in human MV4-11 cells assessed as accumulation at G0/G1 phase at 1000 nM after 24 hrs by flow cytometry; type: functional, cell-based
[9] = target: T5, Histone deacetylase 11 (Homo sapiens, UniProt Q96DB2); experiment: Inhibition of HDAC11 (unknown origin) by fluorescence based assay
T5 sequence (Q96DB2 whole entry): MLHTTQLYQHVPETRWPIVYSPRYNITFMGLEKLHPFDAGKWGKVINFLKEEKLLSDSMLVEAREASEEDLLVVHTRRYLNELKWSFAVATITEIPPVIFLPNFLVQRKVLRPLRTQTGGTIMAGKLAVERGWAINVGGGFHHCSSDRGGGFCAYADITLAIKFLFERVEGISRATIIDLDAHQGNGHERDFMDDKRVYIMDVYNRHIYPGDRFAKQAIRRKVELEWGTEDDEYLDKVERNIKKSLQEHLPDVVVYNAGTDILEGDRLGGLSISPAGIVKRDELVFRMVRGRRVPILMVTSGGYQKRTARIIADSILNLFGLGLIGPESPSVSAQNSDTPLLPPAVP

[10] = target: T2, Bromodomain-containing protein 4; experiment: Inhibition of BRD4 in human MV4-11 cells assessed as reduction in c-Myc expression measured after 24 hrs by Western blot analysis; type: cell-based; conditions: dose 10-1000 nM
[11] = target: Histone deacetylase 4 (Homo sapiens, UniProt P56524); experiment: Inhibition of HDAC4 (unknown origin) by fluorescence based assay
[12] = target: Histone deacetylase 3 (Homo sapiens, UniProt O15379); experiment: Inhibition of HDAC3 (unknown origin) by fluorescence based assay
[13] = target: T6, Histone deacetylase 8 (Homo sapiens, UniProt Q9BY41); experiment: Inhibition of HDAC8 (unknown origin) by fluorescence based assay
T6 sequence (Q9BY41 whole entry): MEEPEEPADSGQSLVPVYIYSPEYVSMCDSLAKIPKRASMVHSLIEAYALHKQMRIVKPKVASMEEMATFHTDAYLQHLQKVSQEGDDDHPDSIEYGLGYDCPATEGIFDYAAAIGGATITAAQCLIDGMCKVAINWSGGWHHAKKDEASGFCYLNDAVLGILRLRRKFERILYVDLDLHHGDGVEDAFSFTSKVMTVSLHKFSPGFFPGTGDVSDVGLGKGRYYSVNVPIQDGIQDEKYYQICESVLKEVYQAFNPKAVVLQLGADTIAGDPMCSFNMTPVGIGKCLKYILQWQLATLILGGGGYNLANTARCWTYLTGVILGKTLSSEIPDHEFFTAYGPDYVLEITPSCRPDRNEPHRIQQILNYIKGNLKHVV

[14] = system: MV4-11; experiment: Induction of apoptosis in human MV4-11 cells at 1000 nM after 24 hrs by flow cytometry relative to control; type: functional
[15] = target: T2, Bromodomain-containing protein 4; experiment: Inhibition of BRD4 in human MV4-11 cells assessed as upregulation of p21 expression at 10 to 1000 nM measured after 24 hrs by Western blot analysis; type: cell-based; conditions: dose 10-1000 nM
[16] = target: T3, Histone deacetylase 1; experiment: Inhibition of HDAC1 in human MV4-11 cells assessed as increase in acetylated H3 at 10 to 1000 nM incubated for 24 hrs by Western blot analysis; type: cell-based; conditions: dose 10-1000 nM
[17] = target: T4, Protein deacetylase HDAC6 (Homo sapiens); experiment: Inhibition of HDAC6 in human MV4-11 cells assessed as increase in acetylated alpha-tubulin at 1 uM incubated for 24 hrs by Western blot analysis; type: cell-based
[18] = target: T3, Histone deacetylase 1; experiment: Inhibition of HDAC1 in human MV4-11 cells assessed as increase in acetylated H3 at 1 uM incubated for 24 hrs by Western blot analysis; type: cell-based

Chain of Histone deacetylase 4 (P56524 whole entry): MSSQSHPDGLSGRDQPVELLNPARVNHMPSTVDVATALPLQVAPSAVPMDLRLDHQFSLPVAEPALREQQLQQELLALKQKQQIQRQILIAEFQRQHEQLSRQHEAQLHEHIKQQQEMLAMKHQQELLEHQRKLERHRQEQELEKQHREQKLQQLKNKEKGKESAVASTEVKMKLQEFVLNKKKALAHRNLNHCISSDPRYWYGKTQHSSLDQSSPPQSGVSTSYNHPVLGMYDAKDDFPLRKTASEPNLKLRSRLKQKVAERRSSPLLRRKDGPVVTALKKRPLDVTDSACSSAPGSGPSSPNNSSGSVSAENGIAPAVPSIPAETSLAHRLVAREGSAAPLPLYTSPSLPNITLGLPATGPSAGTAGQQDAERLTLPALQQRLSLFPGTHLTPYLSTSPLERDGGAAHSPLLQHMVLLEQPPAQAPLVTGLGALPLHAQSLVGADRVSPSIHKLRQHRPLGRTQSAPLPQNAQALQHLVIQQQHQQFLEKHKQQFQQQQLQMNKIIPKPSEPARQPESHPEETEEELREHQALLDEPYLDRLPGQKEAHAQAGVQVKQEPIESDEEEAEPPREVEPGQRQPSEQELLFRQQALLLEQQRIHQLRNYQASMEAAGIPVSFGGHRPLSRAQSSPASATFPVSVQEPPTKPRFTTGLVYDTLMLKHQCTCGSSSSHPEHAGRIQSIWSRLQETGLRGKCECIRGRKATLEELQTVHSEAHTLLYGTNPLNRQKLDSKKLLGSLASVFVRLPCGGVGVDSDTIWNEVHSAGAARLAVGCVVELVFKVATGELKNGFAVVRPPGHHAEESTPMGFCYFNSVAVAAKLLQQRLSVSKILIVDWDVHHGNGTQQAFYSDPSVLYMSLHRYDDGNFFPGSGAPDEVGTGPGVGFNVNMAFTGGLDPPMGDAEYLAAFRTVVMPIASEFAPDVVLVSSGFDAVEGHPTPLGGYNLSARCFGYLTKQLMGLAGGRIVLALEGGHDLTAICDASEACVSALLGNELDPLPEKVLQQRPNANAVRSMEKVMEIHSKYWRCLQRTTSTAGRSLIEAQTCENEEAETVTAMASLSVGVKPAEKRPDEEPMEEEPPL
Chain of Histone deacetylase 3 (O15379 whole entry): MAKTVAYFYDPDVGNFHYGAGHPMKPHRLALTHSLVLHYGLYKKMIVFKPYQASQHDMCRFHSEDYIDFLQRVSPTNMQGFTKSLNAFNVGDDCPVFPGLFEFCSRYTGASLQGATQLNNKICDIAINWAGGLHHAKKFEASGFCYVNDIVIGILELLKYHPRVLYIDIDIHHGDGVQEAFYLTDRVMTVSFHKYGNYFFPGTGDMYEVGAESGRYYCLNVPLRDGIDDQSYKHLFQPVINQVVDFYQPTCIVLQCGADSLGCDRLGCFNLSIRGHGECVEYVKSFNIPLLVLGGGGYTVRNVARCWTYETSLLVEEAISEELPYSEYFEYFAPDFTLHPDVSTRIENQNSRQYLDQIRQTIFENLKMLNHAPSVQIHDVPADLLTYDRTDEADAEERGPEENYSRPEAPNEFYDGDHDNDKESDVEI
T3 sequence (Q13547 whole entry): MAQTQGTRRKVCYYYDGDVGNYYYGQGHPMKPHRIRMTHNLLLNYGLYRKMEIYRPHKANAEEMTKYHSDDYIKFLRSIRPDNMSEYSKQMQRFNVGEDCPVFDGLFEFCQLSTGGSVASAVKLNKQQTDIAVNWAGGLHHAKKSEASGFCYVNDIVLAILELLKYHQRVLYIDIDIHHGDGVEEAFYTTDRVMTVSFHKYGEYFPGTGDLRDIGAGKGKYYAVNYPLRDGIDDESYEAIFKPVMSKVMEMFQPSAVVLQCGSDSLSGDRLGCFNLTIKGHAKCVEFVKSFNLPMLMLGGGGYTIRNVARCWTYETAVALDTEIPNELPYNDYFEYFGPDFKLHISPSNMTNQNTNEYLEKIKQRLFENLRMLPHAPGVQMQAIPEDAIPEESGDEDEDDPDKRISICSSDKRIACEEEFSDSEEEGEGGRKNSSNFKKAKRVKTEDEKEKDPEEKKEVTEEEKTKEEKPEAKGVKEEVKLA

SMILES	IC50 [1]	IC50 [2]	IC50 [3]	inhibition [4]	IC50 [5]	IC50 [6]	Acetylated alpha-tubulin increase (active/not active) [7]	Activity [8]	IC50 [9]	inhibition [10]	IC50 [11]	IC50 [12]	IC50 [13]	Activity [14]	inhibition [15]	inhibition [16]	inhibition [17]	inhibition [18]
Cn1cc(-c2ccccc2Oc2ccccc2)c2cc(C(=O)NCCCCCC(=O)NO)[nH]c2c1=O	3.4 nM	3.8 nM	44.4 nM	Active	610 nM	21.4 nM	–	–	–	–	–	–	–	–	–	–	–	–
Cn1cc(-c2ccccc2Oc2ccccc2)c2cc(C(=O)NCCCCC(=O)NO)[nH]c2c1=O	4 nM	4.8 nM	142 nM	Active	180 nM	13.1 nM	inactive	–	–	–	–	–	–	–	–	–	–	–
Cn1cc(-c2ccccc2Oc2ccccc2)c2cc(C(=O)NCCCCC(=O)Nc3ccccc3N)[nH]c2c1=O	> 500 nM	11.3 nM	> 500 nM	–	240 nM	73 nM	–	–	–	–	–	–	–	–	–	–	–	–
Cc1cc(F)cc(C)c1Oc1ccc(C(C)(C)O)cc1-c1cn(C)c(=O)c2[nH]c(C(=O)NCc3ccc(C(=O)NO)cc3)cc12	39.3 nM	1.5 nM	293 nM	–	440 nM	305 nM	–	–	–	–	–	–	–	–	–	–	–	–
Cc1cc(F)cc(C)c1Oc1ccc(C(C)(C)O)cc1-c1cn(C)c(=O)c2[nH]c(C(=O)NCCCCCCC(=O)NO)cc12	17.2 nM	1.2 nM	228 nM	–	300 nM	369 nM	Active	Active	2750 nM	Active	> 10000 nM	161 nM	583 nM	19.29%	–	–	–	–
Cn1cc(-c2ccccc2Oc2ccccc2)c2cc(C(=O)NCc3ccc(C(=O)Nc4ccccc4N)cc3)[nH]c2c1=O	> 500 nM	18.7 nM	126 nM	Active	80 nM	31.7 nM	inactive	–	–	–	–	–	–	–	Active	Active	–	–
Cn1cc(-c2ccccc2Oc2ccccc2)c2cc(C(=O)NCCCCCCC(=O)NO)[nH]c2c1=O	4.7 nM	5.3 nM	29.5 nM	Active	180 nM	38.6 nM	–	–	–	–	–	–	–	–	–	–	Active	Active
Cn1cc(-c2ccccc2Oc2ccccc2)c2cc(C(=O)NCCCCCC(=O)Nc3ccccc3N)[nH]c2c1=O	> 500 nM	8.4 nM	176 nM	–	70 nM	583 nM	–	–	–	–	–	–	–	–	–	–	–	–
Cn1cc(-c2ccccc2Oc2ccccc2)c2cc(C(=O)NCc3ccc(C(=O)NO)cc3)[nH]c2c1=O	15.3 nM	11.3 nM	168 nM	Active	570 nM	42.1 nM	Active	–	–	–	–	–	–	–	–	inactive	–	–
Cn1cc(-c2cc(C(C)(C)O)ccc2Oc2ccc(F)cc2F)c2cc(C(=O)NCCCCCCC(=O)NO)[nH]c2c1=O	8.7 nM	7.2 nM	52 nM	–	250 nM	54 nM	–	–	–	–	–	–	–	–	–	–	–	–
Cn1cc(-c2ccccc2Oc2ccccc2)c2cc(C(=O)NCCCC(=O)NO)[nH]c2c1=O	144 nM	103 nM	> 500 nM	–	380 nM	142 nM	–	–	–	–	–	–	–	–	–	–	–	–
CC(C)Oc1ccc(C(C)(C)O)cc1-c1cn(C)c(=O)c2[nH]c(C(=O)NCc3ccc(C(=O)Nc4ccccc4N)cc3)cc12	–	2.1 nM	59.7 nM	–	40 nM	5.6 nM	–	–	> 10000 nM	Active	> 10000 nM	1440 nM	> 10000 nM	57.31%	–	Active	–	–
CC(C)Oc1ccc(C(C)(C)O)cc1-c1cn(C)c(=O)c2[nH]c(C(=O)NCCCCCCC(=O)NO)cc12	5.4 nM	6 nM	19.4 nM	–	160 nM	29.5 nM	Active	–	> 10000 nM	Active	> 10000 nM	36.4 nM	99.6 nM	53.73%	–	Active	–	–

— ChEMBL document CHEMBL4732071, “Discovery of selective HDAC/BRD4 dual inhibitors as epigenetic probes” (Eur J Med Chem, 2021)
